Patent publication US20220125765A1, “PHARMACEUTICAL COMBINATIONS COMPRISING MEBENDAZOLE AND A STRONG OR MODERATE CYP1A2 INHIBITOR” (ZEPHAPHARM LTD, priority 2019, published 2022)
Like-named read-outs stand apart in the source and are kept apart here.

Experiments:
[1] = tested on: OVXF 1023L; assay: 2D monolayer CellTiter-Blue viability, ovarian cancer OVXF 1023L; assay type: cell-based
Protocol: (§1) Mebendazole was tested in vitro across a panel of 12 tumor cell lines of ovarian and renal cancer by using a 2D monolayer assay. […] OVXF 899L and RXF 486L are P-gp expressing, multidrug resistant cell lines.
(§2) Anti-tumor activity is expressed as absolute and relative IC50/70 values, calculated by 4-parameter non-linear curve fit.

[2] = tested on: OVXF 899L; assay: 2D monolayer CellTiter-Blue viability, ovarian cancer OVXF 899L (P-gp expressing, multidrug resistant); assay type: cell-based; details: for Test/Control (%) at Drug Concentration: 72 h; for IC50: OVXF 899L
Protocol: as §1, §2

[3] = tested on: SXFS RH-30; assay: 2D monolayer CellTiter-Blue viability, soft tissue sarcoma RH-30; assay type: cell-based; details: 72 h
Protocol: (§3) Seventeen compounds, including mebendazole (Batch no. […] Efficacy of compounds was assessed using CellTiter-Blue® Cell Viability Assay. Anti-tumor activity is expressed as absolute and relative IC50 and IC70 values, calculated by non-linear regression analysis.

[4] = in vitro; details: human; for half-life at 1 μM: cryopreserved hepatocytes; for hepatocyte CLint at 1 µM: cryopreserved hepatocytes (suspension)
Protocol: The amount of test compound remaining at each time point was analysed by LC-MS/MS. Appropriate control compounds were also incubated.
The final incubation volume was 500 μL. Appropriate control compounds were included, alongside appropriate vehicle control.
The reactions were stopped by transferring 50 μL of incubate to 100 μL acetonitrile containing internal standard at the appropriate time points (0, 5, 10, 20, 40 and 60 min). The termination plates were centrifuged at 2500 rpm at 4° C. for 30 min to precipitate the protein.

[5] = tested on: NBXF KELLY; assay: 2D monolayer CellTiter-Blue viability, neuroblastoma KELLY; assay type: cell-based; details: 72 h
Protocol: as §3

## COC(=O)Nc1nc2ccc(C(=O)c3ccccc3)cc2[nH]1 [Mebendazole, methyl N-(6-benzoyl-1H-benzimidazol-2-yl)carbamate]
[1]; OVXF 1023, 3.2E−04 μM, 72 h
  Test/Control (%) at Drug Concentration: 103%
[1]; OVXF 1023, 72 h
  Abs. IC70: >3.200 µM
  Rel. IC70: >3.200 µM
[1]; OVXF 1023, 72 h, curve fit
  Bot. (%): 2%
  Top (%): 105%
[2]; OVXF 899, 1.0E+00 μM
  Test/Control (%) at Drug Concentration: 54%
[2]; OVXF 899, 1.0E−01 μM
  Test/Control (%) at Drug Concentration: 92%
[2]; OVXF 899, 1.0E−02 μM
  Test/Control (%) at Drug Concentration: 97%
[2]; OVXF 899, 1.0E−03 μM
  Test/Control (%) at Drug Concentration: 100%
[2]; OVXF 899, 1.0E−04 μM
  Test/Control (%) at Drug Concentration: 88%
[2]; OVXF 899, 3.2E+00 μM
  Test/Control (%) at Drug Concentration: 65%
[2]; OVXF 899, 3.2E−01 μM
  Test/Control (%) at Drug Concentration: 94%
[2]; OVXF 899, 3.2E−02 μM
  Test/Control (%) at Drug Concentration: 94%
[2]; OVXF 899, 3.2E−03 μM
  Test/Control (%) at Drug Concentration: 97%
[2]; OVXF 899, 3.2E−04 μM
  Test/Control (%) at Drug Concentration: 98%
[2]; OVXF 899, 72 h
  Abs. IC70: >3.200 µM
  Rel. IC70: 0.425 µM
[2]; OVXF 899, 72 h, curve fit
  Bot. (%): 57%
  Top (%): 95%
[2]; OVXF 899, 72 h, read-out: Abs. IC50
  IC50: > 3.2 µM
[2]; OVXF 899, 72 h, read-out: Rel. IC50
  IC50: 0.401 µM
[3]; RH-30, 1.0E+00 μM
  Test/Control (%) at Drug Concentration: 19%
[3]; RH-30, 1.0E+01 μM
  Test/Control (%) at Drug Concentration: 20%
[3]; RH-30, 1.0E+02 μM
  Test/Control (%) at Drug Concentration: 5%
[3]; RH-30, 1.0E−01 μM
  Test/Control (%) at Drug Concentration: 89%
[3]; RH-30, 1.0E−02 μM
  Test/Control (%) at Drug Concentration: 104%
[3]; RH-30, 3.2E+00 μM
  Test/Control (%) at Drug Concentration: 21%
[3]; RH-30, 3.2E+01 μM
  Test/Control (%) at Drug Concentration: 13%
[3]; RH-30, 3.2E−01 μM
  Test/Control (%) at Drug Concentration: 20%
[3]; RH-30, 3.2E−02 μM
  Test/Control (%) at Drug Concentration: 95%
[3]; RH-30, 3.2E−03 μM
  Test/Control (%) at Drug Concentration: 111%
[4]
  half-life at 1 μM: 1.92 h
  hepatocyte CLint at 1 µM: 12.1 ± 0.601 µL/min/1e6 cells
[4]; with cimetidine 30 µM
  hepatocyte CLint at 1 µM: 24.8 ± 1.82 µL/min/1e6 cells
[4]; with cimetidine 100 µM
  hepatocyte CLint at 1 µM: 18 ± 1.19 µL/min/1e6 cells
[4]; with cimetidine 300 µM
  hepatocyte CLint at 1 µM: 24.8 ± 2.36 µL/min/1e6 cells
[4]; with fluvoxamine 3 µM
  hepatocyte CLint at 1 µM: 8.14 ± 1.53 µL/min/1e6 cells
[4]; with fluvoxamine 10 μM
  hepatocyte CLint at 1 µM: 10.8 ± 2.32 µL/min/1e6 cells
  half-life at 1 μM: 2.13 h
[4]; with cimetidine 30 μM
  half-life at 1 μM: 0.932 h
[4]; with cimetidine 100 μM
  half-life at 1 μM: 1.29 h
[4]; with cimetidine 300 μM
  half-life at 1 μM: 0.932 h
[4]; with fluvoxamine 3 μM
  half-life at 1 μM: 2.83 h
[4]; with mexiletine 10 μM
  half-life at 1 μM: 5.1 h
[4]; with mexiletine 30 μM
  half-life at 1 μM: 2.2 h
[4]; with mexiletine 100 μM
  half-life at 1 μM: 2 h
[5]; 1.0E+00 μM
  Test/Control (%) at Drug Concentration: 6%
[5]; 1.0E+01 μM
  Test/Control (%) at Drug Concentration: −1%
[5]; 1.0E+02 μM
  Test/Control (%) at Drug Concentration: −1%
[5]; 1.0E−01 μM
  Test/Control (%) at Drug Concentration: 91%
[5]; 1.0E−02 μM
  Test/Control (%) at Drug Concentration: 99%
[5]; 3.2E+00 μM
  Test/Control (%) at Drug Concentration: −1%
[5]; 3.2E+01 μM
  Test/Control (%) at Drug Concentration: −1%
[5]; 3.2E−01 μM
  Test/Control (%) at Drug Concentration: 75%
[5]; 3.2E−02 μM
  Test/Control (%) at Drug Concentration: 99%
[5]; 3.2E−03 μM
  Test/Control (%) at Drug Concentration: 106%
